This passage reports fold change results from PubChem BioAssay AID652027 (The Scripps Research Institute Molecular Screening Center, 2013).

Active and inactive are the calls of the source.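 Rule for the calls: active = STAT3 reporter signal fold change below 0.5 at 10 µM; inactive = the rest.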

The assay deals with U3A cells, IL-6 STAT3 luciferase reporter, luminescence. Kind of assay: IL-6-induced STAT3 luciferase reduction – U3A cells, luminescence, assay provider run, counter-screen for STAT5 inhibitor project, late-stage follow-up (AID 652027). Conditions: at 10 µM; hits give low values. In general terms: Counterscreens check selectivity or assay interference.
Turning to `CN1/C(=C\C(=O)Cn2nnc(-c3ccccc3)n2)C(C)(C)c2ccccc21`, the fold change is 0.62 (inactive).
In the case of `COc1cccc2cc(C(=O)C[n+]3ccc4ccccc4c3)c(=O)oc12`, the fold change was 1.17 (inactive).
On to `O=C(C[n+]1ccc2ccccc2c1)c1ccc2ccccc2c1`, for which the fold change was 1.34 (inactive).
Then `CN1/C(=C\C(=O)CN2CCc3ccccc3C2)C(C)(C)c2ccccc21`, with 1.28 (inactive).
As for `CN1/C(=C\C(=O)CN2C(=O)NC(C)(c3ccc(Cl)cc3)C2=O)C(C)(C)c2ccccc21` (stereo not given), the fold change is 0.75 (inactive).
With `O=C(C[n+]1ccc2ccccc2c1)c1cc2ccccc2oc1=O`, the fold change was 0.84 (inactive).
Then `CN1/C(=C\C(=O)Cn2c(=O)c(C#N)cn(C)c2=O)C(C)(C)c2ccccc21`, with 1.03 (inactive); and `CCOC(=O)C1CCCN(CC(=O)/C=C2/N(C)c3ccccc3C2(C)C)C1` (stereo not given), with 1.16 (inactive); and `CN1/C(=C\C(=O)CN2C(=O)c3ccc([N+](=O)[O-])cc3C2=O)C(C)(C)c2ccccc21`, with 0.77 (inactive).
Then `CN1/C(=C\C(=O)Cn2cc(C(F)(F)F)ccc2=O)C(C)(C)c2ccccc21`, with 1.09 (inactive); and `O=C(C[n+]1ccc2ccccc2c1)Nc1ccccc1`, with 1.74 (inactive); and `CN1/C(=C\C(=O)CN2C(=O)c3ccccc3CS2(=O)=O)C(C)(C)c2ccccc21`, with 0.65 (inactive).
For the compound `Cc1cc[n+](CC(=O)/C=C2\N(C)c3ccccc3C2(C)C)c(C)c1`, the fold change was 0.61 (inactive).
As to `CN1/C(=C\C(=O)CN2C(=O)c3ccccc3S2(=O)=O)C(C)(C)c2ccccc21`, the fold change is 0.82 (inactive).
Then `CN1/C(=C\C(=O)C[n+]2ccccc2)C(C)(C)c2ccccc21`, with 0.77 (inactive).
As to `Cc1cc[n+](CC(=O)/C=C2\N(C)c3ccccc3C2(C)C)cc1`, the fold change is 0.68 (inactive).
Then `CC(C)(C)C(=O)C[n+]1ccc2ccccc2c1`, with 0.93 (inactive); and `CN1/C(=C\C(=O)CN2C(=O)C3CC=CCC3C2=O)C(C)(C)c2ccccc21` (stereo not given), with 0.7 (inactive); and `CN1/C(=C\C(=O)Cn2cnc3ccc(Cl)cc3c2=O)C(C)(C)c2ccccc21`, with 0.92 (inactive).
Then `O=C(C[n+]1ccc2ccccc2c1)c1ccccc1`, with 1.04 (inactive); and `COC(=O)C1CCCCN1CC(=O)/C=C1/N(C)c2ccccc2C1(C)C` (stereo not given), with 1.04 (inactive); and `COc1ccc2oc(=O)c(C(=O)C[n+]3ccc4ccccc4c3)cc2c1`, with 1.15 (inactive).
Regarding `CN1/C(=C\C(=O)C[n+]2cccc(-c3ccccc3)c2)C(C)(C)c2ccccc21`, the fold change is 0.55 (inactive).
Then `CN1/C(=C\C(=O)CN2C(=O)c3ccccc3C2=O)C(C)(C)c2ccccc21`, with 0.87 (inactive); and `CN1/C(=C\C(=O)CN2CCCC2)C(C)(C)c2ccccc21`, with 0.72 (inactive).
